The results in this text go back to patent US6855693B2, “Peptides for activation and inhibition of δPKC” (The Board of Trustees of the Leland Stanford Junior …, priority 2001, dated 2005).

One data set deals with pigs. The data set can be described thus: Left ventricurogram in pigs, ejection fraction. The class given is in vivo, pig. As for the experimental part:
In another study, left ventricurogram was performed in pigs (n=5) at three time points: (1) before occlusion of left anterior descending artery by balloon catheter (pre ischemia); (2) immediately after reperfusion with 2.5 μM/10 mL of δV1-1 (post ischemia); and (3) before sacrifice five days later (5 days post ischemia), using 6 Fr. of pig-tail catheter. LVG was recorded by 2 views, right anterior oblique and left anterior oblique. Ejection fraction (EF), the percent of blood ejected in a beat, during maximum contraction, of the total maximum present in the left ventricle, was analyzed by the software, Plus Plus (Sanders Data Systems), and the averages of two views were evaluated. Ejection fraction is a measure of how well the heart is functioning, with a higher ejection fraction indicative of a better functioning heart.

For a further data set, the system named is mouse model. The data set can be described thus: Safety of two injections in the mouse model. It is filed as in vivo. The conditions noted are these: 1 μM final concentration. From the text:
(§1) Blood samples and tissue samples of lung, liver, brain, gut, kidney, etc. were collected from the animals and analyzed at a pathology lab. […] Kidney, liver, brain, and lung functions were normal and all blood analyses were also normal.

Data set [1] has as its system adult female pigs. The experiment in a line: Pathology of blood and tissue samples of the treated pigs. More on the design: species or system pig. The settings on record: pigs treated in vivo with δV1-1.
Text: as §1

Another data set deals with Sprague-Dawley rats. The experiment in a line: Rat cerebral ischemia (stroke) model, middle cerebral artery occlusion, infarct area. It is filed as in vivo. The settings on record: Tat-conjugated δV1-1 into carotid artery prior to ischemia and at end of 2 hour occlusion, final blood concentration 1 μM; brains 24 hrs later. As for the experimental part: In another study performed in support of the invention, the ability of δV1-1 peptide (SEQ ID NO:4) to inhibit damage to the brain as a result of stroke was examined. In this study, described in Example 6, a rat cerebral ischemia model was used. Ischemia was induced using an intraluminal suture to occlude the ostium of the middle cerebral artery. δV1-1 conjugated to Tat peptide (SEQ ID NO:9) or the Tat peptide alone were injected into the carotid artery before and after a two hour occlusion period. The brain from each animal was harvested 24 hours later, stained, and examined.
Adult male Sprague-Dawley rats weighing between 280-320 g were used. Animals were maintained under isofluorane anesthesia during all surgical procedures. Physiological parameters were monitored and maintained in the normal range. Rectal temperature was also measured. At the completion of the experiment, the animals were euthanized with a barbiturate overdose and prepared for histological analysis.
Ischemia was induced using an occluding intraluminal suture. […]
Animals were perfused with heparinized saline and brains removed and sectioned into 2 mm thick slices. […] Areas of infarction (white) were then measured using an image analysis system previously described (Yenari, M. A. et al., 1998; Maier, C. et al., 1998).

The test system of a further data set is whole rat hearts. The data set can be described thus: Ex vivo whole hearts, peptide during reperfusion after 20 min global ischemia, functional recovery. On the procedure: Another study was performed to determine if the peptides could be delivered to an intact organ to provide protection after an ischemic insult. In this study, as described in Example 4, the rat heart model described above was used and the hemodynamic parameters were measured during the 20 minutes of global ischemia and the […]. During the reperfusion only, δV1-1 was delivered at a concentration of 500 nM.
In a similar study, five pairs of rats were treated as described in Example 4, where the ex vivo hearts were subjected to 20 minutes of ischemia and 30 minutes of reperfusion. During the first 20 minutes of reperfusion, 500 nM of δV1-1 or vehicle control was administered.
Rat hearts were isolated as described in Example 3. The left ventricular pressure and its real-time derivative (dP/dt) were monitored via a latex balloon placed in the ventricular cavity and at a constant heart rate by pacing (3.3 Hz) and at a constant coronary flow (10 ml/min.). The hearts were subjected to 20 minutes of ischemia and 30 minutes of re-perfusion. During the first 20 minutes of reperfusion, 500 nM of δV1-1 or vehicle control was delivered.

For data set [2], the system named is adult female pigs. The experiment in a line: In vivo pig cardiac ischemia (30 min LAD balloon occlusion), infarct of area at risk after five days. The settings on record: approximately 20 μg Tat-conjugated peptide during last 10 minutes of 30 minute occlusion; five days later. As for the experimental part:
In another study in support of the invention, the ability of δV1-1 peptide to protect tissue from damage due to an ischemic or hypoxic event was evaluated by administering the peptide in vivo to adult female pigs. As detailed in Example 5, δV1-1 peptide was administered to the pigs during the last 10 minutes of a 30 minute ischemic insult. Five days later, the hearts were analyzed for tissue damage. Adult female pigs, 35-40 kg in weight, were anesthetized and a catheter was introduced through the carotid artery into the heart. Using conventional intervention cardiology techniques, a wire was placed through a catheter and into the left anterior descending artery. A balloon was run over this wire to a site of occlusion where it was then inflated to block blood flow for 30 minutes. […] From this the percent infarct per area at risk for each slice and for the entire heart was determined.

[3] abbreviates: 500 nM during reperfusion after 20 minutes global ischemia.

No end group written: not given here.

In the case of “SFNSYELGSL (also: conjugated to Antennapedia or Tat carrier; listed as Rattus norvegicus) [δV1-1, tested conjugated to Antennapedia or Tat carrier]”, the “decrease in ejection fraction compared with scrambled peptide control” value in the data set on pigs (reperfusion with 2.5 μM/10 mL of δV1-1, post ischemia) is “less pronounced decrease”. The “ejection fraction at five days post ischemia” value in the data set on pigs (reperfusion with 2.5 μM/10 mL of δV1-1, 5 days post ischemia) is “on par with that measured prior to ischemia and significantly higher than the untreated animals”. The “adverse effect of two injections” value with mouse model (mouse model) was “no adverse effect”. For the same sequence, in the data set with mouse model (two injections), the blood analyses entry is reported as “normal”; the “kidney, liver, brain, and lung functions” value is “normal”. The “blood samples and tissue samples of lung, liver, brain, gut, kidney, pathology” value in the data set with adult female pigs [1] is “All samples were normal and no inflammation or tissue abnormalities were observed”. The brain infarct area result in the data set with Sprague-Dawley rats is recorded as “significant reduction”. The “end diastolic pressure (EDP)” value in the data set with whole rat hearts (500 nM during first 20 minutes of reperfusion, 5-30 minutes after reperfusion) is listed as “approximately 60 mmHg”. For the same sequence, in the data set on whole rat hearts (setting [3]), the “coronary perfusion pressure (PP)” value is “reduced” and the “elevated LVP end diastolic pressure” value is “reduced”. The “reduction in creatine phosphokinase release compared with vehicle control” value in the data set on whole rat hearts (500 nM during reperfusion after 20 minutes global ischemia, not shown) is given as ~50%. In the data set on whole rat hearts (after ischemia and after treatment with 500 nM δV1-1), the “perfusion pressure (PP) relative to hearts left untreated” value was “about 75%”. Further, in the data set with adult female pigs [2], the “infarct area within the area at risk (heart slices)” value is listed as “significantly reduced infarct area” and the “percent of infarct of the area at risk compared with untreated animals” value is “nearly two-fold lower”.
